We go through 2 compounds from patent publication EP4631963A1, “PEPTIDE FOR CARTILAGE REGENERATION, AND USES THEREOF” (Caregen Co., Ltd., priority 2022, dated 2024).

Where a SMILES comes first, the peptide text is derived from it. Where no end group is shown, it is not given here.

The series has as its system C28/I2, human chondrocyte cell line. Kind of series: CCK-8 cytotoxicity assay. It counts as cell-based. Particulars: C28/I2 cells, different concentrations, 3 days, 450 nm; FIG. 1, FIG. 2. How it is done: The cytotoxicity of Peptide-1 or Peptide-2 upon addition to human-derived chondrocytes (C28/I2, human chondrocyte cell line) was analyzed using a CCK-8 assay.
Specifically, human-derived chondrocytes were seeded in a 96-well plate at a density of 3 × 10^3 cells/well and cultured in DMEM medium (cat. 11995-065, Gibco) for 24 hours.
A general note: Formazan colour is commonly taken as a measure of viable cells.

Regarding HHEERY [Peptide-1, HHEERY], the “toxicity in human-derived chondrocytes (CCK-8 activity)” value is reported as “did not exhibit toxicity”.

On to `CC(C)C[C@H](NC(=O)[C@@H](NC(=O)[C@@H](N)CCCNC(=N)N)[C@@H](C)O)C(=O)N[C@@H](CCC(=O)O)C(=O)O` [Peptide-2, RTLE] (H-RTLE-OH), for which the “toxicity in human-derived chondrocytes (CCK-8 activity)” value is on record as “did not exhibit toxicity”.
